“Also recorded” adds a separate entry of the source.

The results in this text go back to patent US8110217B2, “Sphingomyelin liposomes for the treatment of hyperactive bladder disorders” (priority 2001, dated 2012).

Common to all, as to assay type: in vivo, female Sprague-Dawley rats
Assay [1] concerns hyperactive bladder (acetic acid). The assay is described as follows: Continuous CMG, hyperactive bladder induced by acetic acid (Examples 5-6). On the procedure:
(§1) This was followed by instillation of liposomes (LP) in saline (in the case of the former) or LP/KCl.
(§2) Intravesical bladder pressure was recorded via a transurethral catheter in adult female Sprague-Dawley rats anesthetized with urethane (1.2 g/kg) administered by subcutaneous injection (sc). Some animals were pretreated with capsaicin (125 mg/kg, sc) four days prior to the experiments. […] Parameters measured included intercontraction interval (ICI), amplitude of bladder contractions, compliance and micturition pressure threshold (PT).
(§3) Animal Preparation. Thirty-four female Sprague-Dawley rats (250-300 g) were used in this study. Animals were anesthetized with urethane (1.2 g/kg, sc). Body temperature was maintained in the physiological range using a heating lamp.
(§4) Cystometrogram (CMG). A transurethral bladder catheter (PE-50) was connected via a three-way stopcock to a pressure transducer and to a syringe pump. This was used to record intravesical pressure and to infuse solutions into the bladder. A control CMG was performed by slowly filling the bladder with saline (0.04 ml/min) to elicit repetitive voiding. The parameters recorded were amplitude, PT, compliance, and ICI of reflex bladder contractions. Measurements in each animal represented the average of 3 to 5 bladder contractions.
(§5) Induction of a Hyperactive Bladder. […] L. Cheng et al., 1993, Am. J. Physiol. 265:R132-138). The experimental design is illustrated in FIG. 7. The KCl concentration used was within the range of concentrations present in normal rat urine (M. Ohnishi et al., 2001, Toxicol. Appl. Pharmacol. 174:122-129).
(§6) Preparation of Liposomes (LP). LP were prepared as described by Kirby and Gregoriadis (C. J. Kirby and G. Gregoriadia, 1984, “A simple procedure for preparing liposomes capable of high encapsulation efficiency under mild conditions,” Liposome Technology; G. Gregnoriadis, Ed., C.R.C. Press, Inc., Boca Raton, Fla., Vol. 1, p. 20). Briefly, LP were constructed as a 2:1 molar ratio of L-α-phosphatidylcholine and cholesterol (Sigma Chemical Co., St. Louis, Mo.) to a final lipid concentration of 2 mg/ml in saline. Lipids in chloroform were dried down together in the proper ratio under nitrogen. The residues were reconstituted as LP in saline or 500 mM KCl by intense sonication.
(§7) Statistical Analyis. Statistical analyses were performed using Student's t test for paired or unpaired data, where applicable. A p-value less than 0.05 was considered significant. All data are expressed in Example 2 (below) as means±S.E.

For assay [2], the system named is acute hyperactive bladder. Description: Continuous CMG, acute hyperactive bladder model with intravesical PS and KCl (Examples 7-8). How it is done: An animal model for acute hyperactive bladder in rats was developed using intravesical infusion of PS, an agent used to break down urothelial barrier function and physiological concentrations of KCl.
Continuous CMGs were performed in urethane-anesthetized female rats. The bladder was filled (0.04 ml/min) with normal saline followed by intravesical infusion for a 60 minute period with a test solution comprising either KCl (100 or 500 mM) or PS (10 or 30 mg/ml). Following this, 10 mg/ml PS treated animals were infused intravesically with 100, 300 or 500 mM KCl. Some animals were pretreated with capsaicin ([…], sc) four days before the experiments.
Animal Preparation. The study was performed on 40 female Sprague-Dawley rats weighing 250-300 gm. Animals were anesthetized with 1.2 gm/kg urethane injected subcutaneously. Body temperature was maintained in the physiological range using a heating lamp.
Cystometrogram (CMG). PE-50 tubing (Clay-Adams, Parsippany, N.J.) was inserted into the bladder through the urethra and connected via a three-way stopcock to a pressure transducer and to a syringe pump. This was used for recording intravesical pressure and for infusing solutions into the bladder. A control CMG was performed by slowly filling the bladder with saline (0.04 ml/min) to elicit repetitive voiding. The amplitude, PT, compliance and intercontraction interval (ICI) of reflex bladder contractions were recorded. Pressure threshold (PT) represents the pressure that induces the initial bladder contraction. PT often has been used as a parameter corresponding to afferent nerve activity for the induction of reflex bladder contractions. Measurements in each animal represented the average of 3 to 5 bladder contractions.
After performing control CMGs with saline infusion, three intravesical infusion experiments were performed in parallel: (1) infusion of KCl (100 or 500 mM in saline) for one hour (N=4 in each group); (2) infusion of PS (Sigma Chemical Co.; 30 mg/ml in saline) for one hour (N=6); and (3) infusion of PS (10 mg/ml) for one hour, followed by 100, 300 or 500 mM KCl for one hour (N=6, in each subgroup). In four animals, capsaicin dissolved in a vehicle containing 10% ethanol, 10% TWEEN®80 and 80% physiological saline, at a concentration of 20 mg/ml was given subcutaneously in divided doses on 2 consecutive days. The doses included 25 and 50 mg/kg at a 12-hour interval on the first day and 50 mg/kg on the second day, as previously described (C. L. Cheng et al., 1993, Am. J. Physiol. 265:R132-138). All injections were performed under halothane anesthesia. Four days after the last dosage of capsaicin, the animals were anesthetized and treated with intravesical administration of PS (10 mg/ml) for 1 hour followed by KCl (500 mM) infusion.
Suppression of Micturition Reflex. To evaluate the direct effects of potassium on detrusor muscle, micturition reflex was blocked in 4 animals by either intravenous hexamethonium injection (25 mg/kg) (N=2) or transection of bilateral pelvic nerves (N=2).
Statistical Analysis. Statistical analyses were performed using Student's t test for paired or unpaired data, as applicable, with p<0.05 considered significant. Quantitative data are expressed in Example 8 (below) as means plus or minus standard error.

Assay [3] deals with hyperactive bladder (PS/KCl). Description: Continuous CMG, hyperactive bladder induced by PS/KCl (Examples 5-6). On the procedure:
as §1, §2, §3, §4, §5, §6, §7

[4] abbreviates: AA 1 hr in capsaicin pretreated rats, N=4.
The mark [5] stands for this setting: AA 2 hr in capsaicin pretreated rats, N=4.
[6] abbreviates: AA at 1 hour, capsaicin pretreated animals.
Setting [7] is: AA at 2 hours, capsaicin pretreated animals.
Setting [8] is: Table 2A series: saline, AA 0.1% 1 h, LP 2 h, N=6.
Where [9] appears, read: Table 2B series: saline, AA 0.1% 1 h, saline, N=6.
The mark [10] stands for this setting: Table 2C series: saline, LP 1 h, AA 1 h, N=6.
The mark [11] stands for this setting: Table 1A: PS 10 mg/ml infusion 1 hour after saline, N=6.

With `CC(=O)O` [AA, acetic acid], the compliance reduction in assay [1] (AA 0.1%, two series of experiments) is reported as 71-76%. In assay [1] (AA 1 hr in capsaicin pretreated rats (125 mg/kg sc, four days before), N=4), the ICI was determined as 10.2 ± 3.0 min. Moreover, in assay [1] (setting [4]), the Amplitude was found to be 20.9 ± 2.5 cm H2O, the Compliance is 0.152±0.028 ml/cm H2O and the PT turned out to be 6.7 ± 0.2 cm H2O. Moreover, in assay [1] (setting [5]), the Amplitude was 23.6 ± 5.7 cm H2O, the Compliance is 0.082±0.024 ml/cm H2O, the ICI was found to be 4.6 ± 1.2 min and the PT is listed as 6.7 ± 0.7 cm H2O. Also, in assay [1] (setting [6]), the ICI reduction was 51% and the compliance reduction was found to be 33%. In addition, in assay [1] (setting [7]), the ICI decrease came out at 78% and the compliance decrease is on record as 64%. For the same compound, in assay [1] (AA infusion), the “Amplitude change” value is “slight increase” and the “PT change” value is “not significantly changed”. For the same compound, in assay [1] (FIGS. 10A-10F, summary of Examples 5-6), the “bladder hyperactivity in CMG tracings / summary” value is recorded as “elicited bladder hyperactivity”. In assay [1] (setting [8]), this compound gave an Amplitude of 36.8 ± 6.5 cm H2O, a Compliance of 0.071±0.016 ml/cm H2O, an ICI of 2.4 ± 0.5 min and a PT of 8.3 ± 0.9 cm H2O. In assay [1] (setting [9]), this compound yielded an Amplitude of 37.0 ± 7.0 cm H2O, a Compliance of 0.079±0.026 ml/cm H2O, an ICI of 2.9 ± 0.9 min and a PT of 9.1 ± 1.4 cm H2O. For the same compound, in assay [1] (setting [10]), the Amplitude was 38.0 ± 1.3 cm H2O, the Compliance amounted to 0.071 ± 0.022 ml/cm H2O, the ICI is listed as 3.1 ± 0.8 min and the PT was 6.7 ± 0.7 cm H2O. For the same compound, the “time until irritative effect evident” value in assay [1] (following AA infusion) lay in the range of 20 to 30 min.
Consider `COc1cc(CNC(=O)CCCCC=CC(C)C)ccc1O` [capsaicin, 8-methyl-N-vanillyl-6-nonenamid], for which, in assay [2] (capsaicin pretreated animals, PS 10 mg/ml then KCl 500 mM, 2 hours of infusion), the ICI decrease worked out at 35.5%. Moreover, the “delay of hyperactive bladder” value in assay [2] (capsaicin pretreated animals, sequential PS 10 mg/ml and KCl 500 mM) was “about 1 hour”. The “delay of onset of irritative effects” value in assay [2] (capsaicin pretreatment, PS 10 mg/ml then KCl 500 mM) is reported as approximately 60 min. Moreover, in assay [2] (capsaicin sc in divided doses, four days before), the “PS/KCl-induced bladder hyperactivity after capsaicin pretreatment” value is on record as “suppressed PS/KCl-induced bladder hyperactivity”. Moreover, the “delay of bladder hyperactivity evoked by AA” value in assay [1] (capsaicin pretreated animals) fell in the range of 0.5 to 1 h. Also, the “delay of onset of the irritative effects of AA” value in assay [1] (pretreatment with capsaicin 125 mg/kg sc four days before) is 30 to 60 min.
Take protamine sulfate [PS]: in assay [2] (10 mg/ml PS, one hour, N=18), the Amplitude is reported as 25.3 ± 2.0 cm H2O, the Compliance was determined as 0.176 ± 0.013 ml/cm H2O, the ICI is on record as 17.8 ± 0.7 min and the PT came out at 3.4 ± 0.9 cm H2O. In assay [2] (30 mg/ml PS, one hour, N=6), this compound yielded an Amplitude of 28.3 ± 3.1 cm H2O, a Compliance of 0.083 ± 0.022 ml/cm H2O, an ICI of 2.7 ± 0.7 min and a PT of 7.8 ± 1.1 cm H2O. In addition, in assay [2] (PS 30 mg/ml), the ICI decrease was 80.6%, the PT increase came out at 36.8%, the compliance decrease was 63.6% and the “delay to irritative effect” value lay in the range of 40 to 45 min. Further, in assay [2] (high concentrations of PS), the “bladder hyperactivity” value was “induced bladder hyperactivity (decreased ICI)”. The “irritative effects / CMG parameters” value in assay [2] (low concentration of PS (10 mg/ml), one hour) was “not observed; also recorded: no significant change; also recorded: produced no effect”. In assay [3] (setting [11]), this compound displayed an Amplitude of 27.5 ± 0.7 cm H2O, a Compliance of 0.210 ± 0.031 ml/cm H2O, an ICI of 14.9 ± 1.7 min and a PT of 5.9 ± 0.9 cm H2O. Further, the “change of ICI / CMGs” value in assay [3] (infused alone: PS 10 mg/ml or KCl 500 mM) is on record as “not changed; also recorded: did not significantly change the CMGs”.
